Results taken from patent US5981583A (priority 1997, dated 1999).
Where two headings read alike, the source gives them in different places.

What was measured:
IκBa [1] = type: cell-based, human
TFII D = type: cell-based; conditions: 25 μg/ml, 2 hours
NF-κB [2] = type: cell-based, human
AP-1 = type: cell-based; conditions: 25 μg/ml, 2 hours
in vitro [3] = conditions: human, u937 cells
Oct-1 = type: cell-based; conditions: 25 μg/ml, 2 hours
p65 [4] = type: cell-based, human
NF-κB [5] = type: cell-based, human; remark: listed apart in the source
NF-κB [6] = type: biochemical, human
in vitro [7] = assay: in vitro
NF-κB [8] = type: cell-based, human; remark: listed apart in the source
NF-κB [9] = type: cell-based, human; remark: listed apart in the source
[10] = tested on: IκBa promoter linked to the CAT gene; type: cell-based
IκBa [11] = type: cell-based, human; remark: listed apart in the source
p65 [12] = type: cell-based, human; remark: listed apart in the source
p50 = type: cell-based
NF-κB [13] = type: cell-based
NF-κB [14] = type: cell-based, human; remark: listed apart in the source
NF-κB [15] = type: biochemical
c-Rel = type: cell-based
NF-κB [16] = type: cell-based; remark: listed apart in the source

## O=C(/C=C/c1ccc(O)c(O)c1)OCCc1ccccc1 [CAPE, caffeic acid (3,4-dihydroxy cinnamic acid) phenethyl ester]
IκBa [1]
  TNF-induced rate of degradation of IκBa: did not affect significantly
  cytoplasmic pool of IκBa, substance alone: no effect
  resynthesis of IκBa after TNF: did delay its resynthesis
TFII D
  DNA-binding ability of TFII D: did not inhibit
NF-κB [2]
  CAPE-induced inhibition of NF-κB activation in the presence of reducing agents: reversed completely
  activation of NF-κB by the substance alone: No activation
  concentration with maximum effect on TNF-dependent activation of NF-κB: 25 µg/mL
  inhibition of TNF-dependent activation of NF-κB: inhibited the TNF-dependent activation of NF-κB in a dose-dependent manner
  kinetics of inhibition of TNF response: cotreatment with TNF: not effective
  kinetics of inhibition of TNF response: pretreatment: inhibited only when the cells were pretreated
AP-1
  DNA-binding ability of AP-1: did not inhibit
In vitro [3]
  viability: > 98%
Oct-1
  DNA-binding ability of Oct-1: did not inhibit
p65 [4]
  TNF-induced appearance of p65 in the nucleus: blocked
  cytoplasmic pool of p65: none of the treatments altered significantly
NF-κB [5]
  activation of NF-κB induced by H2O2: completely blocked
  activation of NF-κB induced by ceramide: completely blocked
  activation of NF-κB induced by okadaic acid: completely blocked
  activation of NF-κB induced by phorbol myristate acetate: completely blocked
NF-κB [6]
  binding of NF-κB to DNA, deoxycholate-treated cytoplasmic extracts: interfered with the binding of NF-κB proteins to DNA
  binding of NF-κB to DNA, nuclear extracts from TNF-preactivated cells: prevented NF-κB from binding to DNA

## COc1cc(CNC(=O)CCCCC=CC(C)C)ccc1O [capsaicin, 8-methyl-N-vanillyl-6-nonenamid]
In vitro [7]
  viability at 2 h, 100 µM: 99%
  viability at 2 h, 200 µM: 98%
  viability at 2 h, 300 µM: 95%
NF-κB [8]
  concentration with almost complete inhibition of TNF-induced NF-κB: 200 µM
NF-κB [9]
  NF-κB activation mediated through okadaic acid: inhibited only partially
  phorbol myristate acetate-induced activation of NF-κB: completely blocked
[10]
  TNF-enhanced CAT activity, pIκBCAT-transfected cells: reduced significantly
IκBa [11]
  TNF-mediated degradation of IκBa: abolished
  appearance of TNF-mediated slower-migrating band of IκBa: abolished
  level of cytoplasmic IκBa, capsaicin alone: remained unaffected
p65 [12]
  TNF-induced migration of p65 into the nucleus: did block the TNF-induced migration
  level of cytoplasmic p65, capsaicin alone: remained unaffected
  migration of p65 protein into the nucleus, capsaicin by itself: did not induce this migration
p50
  level of p50 protein in cytosolic fraction: neither capsaicin by itself or in combination with TNF had any effect
NF-κB [13]
  concentration with almost complete inhibition of TNF-induced NF-κB: 200 µM
NF-κB [14]
  NF-κB activation on co-incubation with TNF: did not block NF-κB activation
  activation of NF-κB by 10 nM TNF: completely inhibited
  activation of NF-κB by the substance itself: did not activate NF-κB
  concentration that inhibited most of the activation induced by TNF: 200 to 300 µM
  pre-incubation time for maximum inhibition of the response to TNF: 120 min
NF-κB [15]
  ability of NF-κB to bind to the DNA, deoxycholate-treated cytoplasmic extracts from capsaicin-exposed cells: did not modify
  ability of NF-κB to bind to the DNA, nuclear extracts exposed to capsaicin after TNF treatment: did not modify
c-Rel
  level of c-Rel protein in cytosolic fraction: neither capsaicin by itself or in combination with TNF had any effect

## O=C(C=Cc1cc(O)ccc1O)OCCc1ccccc1 [compound 1]
NF-κB [2]
  activity in inhibiting NF-κB activation relative to CAPE: as active as CAPE
  effect of CAPE analogues on TNF-induced NF-κB activation: increased the potency of inhibition

## COc1ccc(C=CC(=O)OCCc2ccccc2)cc1OC [compound 2]
NF-κB [2]
  activity in inhibiting NF-κB activation relative to CAPE: less active than CAPE

## O=C(C=Cc1ccc(O)c(O)c1O)OCCc1ccccc1 [compound 3]
NF-κB [2]
  activity in inhibiting NF-κB activation relative to CAPE: less active than CAPE
  effect of CAPE analogues on TNF-induced NF-κB activation: loss of potency

## O=C(C=Cc1ccc(O)c(O)c1)OCCCc1ccccc1 [compound 4]
NF-κB [2]
  activity in inhibiting NF-κB activation relative to CAPE: less active than CAPE
  effect of CAPE analogues on TNF-induced NF-κB activation: significant loss of inhibition

## C=C(C)[C@]12C[C@@H](C)[C@@]34O[C@](Cc5ccccc5)(O[C@@H]1[C@@H]3C=C(COC(=O)Cc1ccc(O)c(OC)c1)C[C@]1(O)C(=O)C(C)=C[C@@H]41)O2 [resiniferatoxin]
NF-κB [16]
  TNF-mediated activation of NF-κB: completely inhibited
  activation of NF-κB by the substance itself: did not activate NF-κB
  concentration sufficient for maximum inhibition of the TNF response: 40 µM
  potency relative to capsaicin: approximately 8 fold
